Measured values taken from patent US9173871B2, “Oxazole and thiazole compounds as beta-catenin modulators and uses thereof” (New York University, priority 2008, dated 2015).

Assays:
[1] = target: Wnt/wg pathway, Wnt-responsive luciferase reporter dTF12; settings: Gonsalves et al., PNAS 2011; read-out: IC50, β-catenin-responsive luciferase reporter (dTF12); cited from earlier work
[2] = tested on: AR, PSA, c-myc, CDK1, UBE2C protein in LNCaP cells; assay: Western blot time course of AR and β-catenin target proteins in LNCaP cells; type: cell-based
Description: (§1) ABL cells were treated similarly, but cultured in 5% charcoal-stripped phenol-red free RPMI. The mRNA was extracted at each time point and relative levels of indicated genes were analyzed by Q-PCR and normalized to RPL19. B) Protein from LNCaP cells was analyzed at each time point and immunoblotted with indicated antibodies.
(§2) Expression of tubulin (included as an internal loading control) and β-catenin were unaffected.

[3] = tested on: Wnt/β-catenin STF-LUC reporter in LNCaP; assay: β-catenin/Wnt-responsive STF16-LUC reporter with S37A β-catenin in LNCaP cells; type: cell-based
Description: (§3) LNCaP or LNCaP-abl (ABL) cells were cotransfected with 0.1 μg β-galactosidase and 0.2 μg S37A stabilized β-catenin together with the indicated luciferase reporter constructs; STF16-LUC (β-catenin reporter) and LB1-LUC (AR reporter). […] Luciferase activity was normalized to β-galactosidase expression.
(§4) To determine the IC50 for the β-catenin/Wnt-responsive reporter, cells were cotransfected with β-galactosidase (LacZ) and a constitutively active S37A stabilized β-catenin mutant construct together with the reporter construct, STF16-LUC. To determine the IC50 for the AR-responsive construct, cells were cotransfected with LacZ and the AR responsive reporter construct, ARE-LUC. […] B) AR overexpression circumvents C3 repression of AR-responsive transcription. LNCaP cells were cotransfected with 0.1 μg LacZ and 0.2 μg of the AR responsive reporter construct, ARE-LUC, together with 0, 0.05, 0.1 and 0.2 μg of an AR expression vector. […] Luciferase activity was normalized to LacZ expression.
(§5) 108(15): 5954-63], it had not been determined in prostate cancer cells. […] 69(8): 3332-8].

[4] = tested on: Wnt/β-catenin STF-LUC reporter in LNCaP-abl cells; assay: β-catenin/Wnt-responsive STF16-LUC reporter with S37A β-catenin in LNCaP-abl cells; type: cell-based
Description: as §3, §4, §5

LNCaP cells [5] = assay: PARP cleavage immunoblot as marker of apoptosis, LNCaP; type: cell-based; settings: 20 μM, 72 hr
VCaP cells = assay: Growth of VCaP cells; type: cell-based; settings: 20 μM daily
HEK 293 cells = assay: Neutral red uptake growth assay, HEK293; type: cell-based; settings: HEK 293, higher levels of C3 (10 or 20 μM daily)
Description: Left panel; HEK293 cells were cultured in DMEM with 10% FBS. […] Neutral red uptake assay was performed at the end of treatment to estimate the number of viable cells.

LNCaP-abl cells [6] = assay: Proliferation assay (neutral red uptake), LNCaP-abl; type: cell-based; settings: 20 μM daily
Description: (§6) A) Cells were cultured in phenol-red free RPMI with either 5% charcoal-stripped FBS supplemented with 0.1 nM R1881 (LNCaP) or 10% charcoal-stripped FBS alone (LNCaP-abl). […] Neutral red uptake assay was performed at the end of treatment to estimate the number of viable cells. […] Fixed cells were stained with Propidium Iodide and analyzed for DNA content using flow cytometry. The first and the second red peak and the dashed area represent G0/G1, M and S-phase cell population, respectively.

membrane bound β-catenin = assay: Immunofluorescence of membrane β-catenin in androgen-deprived LNCaP cells; type: cell-based
Description: An important objective in the initial screen for inhibitors of β-catenin responsive transcription (iCRT) was to isolate compounds that diminished the nuclear function of β-catenin without affecting β-catenin interaction with E-cadherin at the cell membrane.

LNCaP-abl cells [7] = assay: PARP cleavage immunoblot as marker of apoptosis, LNCaP-abl; type: cell-based; settings: 20 μM, 72 hr
AR nascent mRNA = assay: Q-PCR of nascent AR mRNA in LNCaP cells; type: cell-based; settings: 20 μM, four hours, presence or absence of R1881
Description: RNA was extracted, treated with deoxyribonuclease and subjected to cDNA synthesis. Relative levels of nascent AR mRNA were analyzed by Q-PCR using primers flanking exon/exon and exon/intron.

LNCaP-abl cells [8] = assay: Flow cytometry DNA content (propidium iodide), LNCaP-abl; type: cell-based; settings: 20 μM, 24 hr
Description: as §6

[9] = Toxicity / maximum tolerated dose in mice; type: in vivo
Description: Importantly, given the role of the Wnt/β-catenin pathway as a regulator of intestinal stem cells [Korinek et al., Nat Genet, 1998. 19(4): 379-83; van de Wetering et al., Cell, 2002. […] Accordingly, mice were injected 5 days/week for 5 weeks at a range of concentrations between 50-125 mg/Kg and compared to vehicle-alone control. Toxicity was monitored by assessing mouse weight, blood counts and mortality. The MTD determination was performed at the fee-for-service, anti-tumor assessment facility at Memorial Sloan Kettering Cancer Center.

[10] = tested on: ARE-LUC androgen responsive reporter gene in LNCaP; assay: AR responsive luciferase reporter (ARE-LUC / LB1-LUC) in LNCaP cells; type: cell-based
Description: as §3, §4, §5

LNCaP cells [11] = assay: Proliferation assay (neutral red uptake), LNCaP; type: cell-based; settings: 20 μM daily
Description: as §6

LNCaP cells [12] = assay: Flow cytometry DNA content (propidium iodide), LNCaP; type: cell-based; settings: 20 μM, 24 hr
Description: as §6

[13] = tested on: AR and β-catenin target genes in LNCaP-abl cells; assay: Q-PCR time course of AR and β-catenin target genes in LNCaP-abl cells; type: cell-based; settings: single dose at time 0, persists for 48 hours, FIG. 16A
Description: as §1, §2

[14] = tested on: AR and β-catenin target genes in LNCaP cells; assay: Q-PCR of AR and β-catenin target genes in LNCaP cells; type: cell-based; settings: 20 μM, 24 hr
Description: Samples are normalized to RPL19 and E-cadherin and GAPDH are included as controls.
While β-catenin can act as an AR coactivator [Song et al., J Biol Chem, 2005. 280(45): 37853-67], AR mRNA levels are also directly regulated by TCF binding sites in the AR promoter [Yang et al., Oncogene, 2006. 25(24): 3436-44]. […] AR mRNA was quantified along with well-characterized AR target genes, Nkx3.1 and PSA. In addition, CDC20, CDK1 and UBE2C, M phase cell cycle regulatory genes that are AR targets in LNCaP-abl cells were examined [Wang et al., Cell, 2009. 138(2): 245-56]. Levels of c-myc were also examined since c-myc is a known Wnt/β-catenin target gene and assessment of information available through the Memorial Sloan Kettering cBio Cancer Genomics portal [Taylor et al., Cancer Cell, 2010. […] E-cadherin and GAPDH are not affected by C3 treatment.

[15] = 75 mg/Kg injected 5 days a week for 5 weeks

In the case of CCc1ccc(-c2nc(CSCC(=O)NCCc3ccccc3)c(C)o2)cc1 [Compound C3], the IC50 [1] is given as 8.2 nM, the “expression of tubulin and β-catenin protein” value [2] is given as “unaffected” and the “levels of AR, PSA, c-myc, CDK1 and UBE2C protein” value ([2]; especially at 48-hour time point) is given as “diminished levels”. For the same compound, the IC50 [3] was 140 nM, the “Wnt reporter gene activity (STF16-LUC)” value ([3]; 20 uM, 24 hr) was “inhibits” and the IC50 [4] was 890 nM. For the same compound, the “Wnt reporter gene activity (STF16-LUC)” value ([4]; 20 uM, 24 hr) was “inhibits”, the “PARP cleavage (apoptosis marker)” value (LNCaP cells [5]) was “Increased levels of PARP cleavage” and the cell growth (VCaP cells) was “completely abolished”. The 293 cell growth (HEK 293 cells) was “somewhat slow”, the cell growth (LNCaP-abl cells [6]) was “completely abolished” and the “ability of β-catenin to interact with E-cadherin at the cell membrane” value (membrane bound β-catenin) was “does not affect”. For the same compound, the “PARP cleavage (apoptosis marker)” value (LNCaP-abl cells [7]) was “Increased levels of PARP cleavage”, the “levels of newly synthesized AR mRNA” value (AR nascent mRNA) was “diminishes” and the “cell cycle effect by flow cytometry” value (LNCaP-abl cells [8]) was “growth arrest of the cells in the G0/G1 phase”. The body weight [9, 15] was “did not lose weight”, the gut toxicity [9, 15] was “no gut toxicity” and the “histology of all major organs” value [9, 15] was “normal”. For the same compound, the “toxicity (overall)” value [9, 15] was “not toxic”, the toxicity ([9]; continuous injection of 20 mg/Kg by mini-pump for 5 weeks) was “no toxicity” and the IC50 ([10]; LNCaP (first of two values)) was 1440 nM. For the same compound, the “AR reporter gene activity (LB1-LUC)” value ([10]; LNCaP, 20 uM, 24 hr) was “inhibits”, the cell growth (LNCaP cells [11]) was “completely abolished” and the “cell cycle effect by flow cytometry” value (LNCaP cells [12]) was “growth arrest of the cells in the G0/G1 phase”. The “AR, CDK1, UBE2C and c-myc mRNA” value [13] was “diminished”, the “mRNA of E-cadherin and GAPDH (controls)” value [14] was “not affected” and the “mRNA of AR, NR×3.1, CDC20, PSA, CDK1, c-myc and UBE2C” value ([14]; with or without R1881) was “diminished”.
